Source: US12174174B2, “Composition comprising material for regulating OCT4 modification to repress stemness” (NATIONAL CANCER CENTER, priority 2018, dated 2024)

System: CSNK2A1
Assay: Doxycycline-dependent shRNA inhibition of CSNK2A1 expression in embryonic stem cell line E14, western blotting
Format: cell-based, mouse
Conditions: E14 cells, lentivirus, FIG. 24
Excerpt: To confirm the relationship between CSNK2A1 and OCT4 phosphorylation using a kinase inducing the phosphorylation of serine 351 of OCT4, a cell line for regulating the inhibition of CSNK2A1 expression was produced. To this end, a lentivirus doxycycline-dependently expressing shRNA of SEQ ID NO: 5 or 6 was produced and transfected into an embryonic stem cell line E14, thereby producing a cell line capable of regulating CSNK2A1 expression using doxycycline.

In the case of “shRNA of SEQ ID NO: 5: short hairpin RNA inhibiting CSNK2A1 expression, base sequence of SEQ ID NO: 5 (CCGGCCGAGUUGCUUCUCGAUAUUUCUCGAGAAAUAUCGAGAAGCAACUCGGUUUUG)”, the “OCT4 phosphorylation after inhibition of CSNK2A1 expression” value is reported as “a kinase inducing OCT4 phosphorylation is CSNK2A1”.

In the case of “shRNA of SEQ ID NO: 6: short hairpin RNA inhibiting CSNK2A1 expression, base sequence of SEQ ID NO: 6 (CCGGACAGACUAUGACAUUCGAUUUCUCGAGAAAUCGAAUGUCAUAGUCUGUUUUUUG)”, the “OCT4 phosphorylation after inhibition of CSNK2A1 expression” value is reported as “a kinase inducing OCT4 phosphorylation is CSNK2A1”.
